Results: patent US8648091B2, “Dihydroquinolinones as ectoparasiticides” (Novartis AG, priority 2007, dated 2014)

How the values were obtained:
[1] = tested on: Ctenocephalides felis (cat flea); assay: Activity in vitro against Ctenocephalides felis (cat flea), artificial feeding system; settings: fleas fed on treated blood for 24 hours, dead fleas
Experimental: 1. Activity In Vitro Against Ctenocephalides felis (Cat Flea). A mixed adult population of fleas is placed in a suitably formatted 96-well plate allowing fleas to access and feed on treated blood via an artificial feeding system. Each compound is tested by serial dilution in order to determine its minimal effective dose (MED). Fleas are fed on treated blood for 24 hours, after which the compound's effect is recorded. Insecticidal activity is determined on the basis of the number of dead fleas recovered from the feeding system.

[2] = tested on: Rhipicephalus sanguineus nymphs; assay: In-vivo test against Rhipicephalus sanguineus nymphs on Mongolian gerbils; parameters: species or system Mongolian gerbils (Meriones unguiculatus); settings: spray (or spot-on) application, tick number reduction vs placebo, Abbot's formula
Experimental: 4. In-Vivo Test Against Rhipicephalus sanguineus Nymphs on Mongolian Gerbils (Meriones unguiculatus) On day 0, gerbils are treated with the test compound at a given dose by spray (or spot-on) application. On day +1 (+2), the animals are infested with nymphs of Rhipicephalus. sanguineus. Ticks are left on the animals until full repletion. Seven days after infestation nymphs dropped off fully engorged are collected and counted. They are kept until molting to also evaluate growth regulating activity of the test compound. Efficacy in killing (and growth regulating) is expressed as a tick number (and molted tick number) reduction in comparison with a placebo treated group, using the Abbot's formula.

Amblyomma variegatum = assay: Activity in vitro against ticks, microplate pre-coated with test compound; settings: at 32 ppm; percentage of dead ticks compared to untreated controls
Experimental: (§1) 2. Activity In Vitro Against Ticks 5-10 ticks of different species (i.e. Rhipicephalus sanguineus, Dermacentor spp., etc.) are distributed into a microplate pre-coated with test compound. Each compound is tested by serial dilution in order to determine its Minimal Effective Dose (MED). The microplates are then incubated at 28° C. and 80% humidity until evaluation. At different time points, ticks are excited by carbon dioxide flush and/or heat. […] If the ticks fail to respond to the stimulation, they are considered dead and the compound is scored as active at the tested concentration. Activity is calculated as a percentage of dead ticks compared to untreated controls.

Dermacentor variabilis = assay: as above; settings: at 10 ppm; percentage of dead ticks compared to untreated controls
Experimental: as §1

Rhipicephalus sanguineus [3] = assay: as above; settings: at 10 ppm; percentage of dead ticks compared to untreated controls
Experimental: as §1

Dermanyssus gallinae = assay: Activity in vitro against Dermanyssus gallinae; settings: at 63 ppm; 10 minutes contact, incubated 5 days
Experimental: 3. Activity In Vitro Against Dermanyssus gallinae A clean female mite population is used to seed a suitably formatted 96-well plate containing the test substances to be evaluated for antiparasitic activity. Each compound is tested by serial dilution in order to determine its Minimal Effective Dose (MED). Mites are left in contact with the test compound for 10 minutes and are then incubated at 25° C. and 60% relative humidity (RH) for 5 days, during which the test compound's effect is monitored. Acaricidal activity is confirmed if mites are dead without having laid eggs. Egg-laying and ensuing mite development are also recorded to identify possible growth-regulating activity.

Rhipicephalus sanguineus [4] = assay: In-vivo test against ticks (Rhipicephalus sanguineus) on dogs; parameters: species or system Dogs of the beagle breed; settings: for six weeks; 25 mg/kg spot-on (15% solution in Transcutol); weekly reinfestation; vs placebo, Abbot's formula
Experimental: (§2) 5. In-Vivo Test Against Ticks (Rhipicephalus sanguineus) on Dogs Dogs of the beagle breed are separated into one treatment and one control group (4 dogs per group). On day 0, the dogs are treated with the test compound at a dose of 25 mg/kg (15% solution in Transcutol) by spot-on application (between the shoulder blades). On day +1, the animals are infested with unfed adult ticks (sex ratio 1:1). Evaluation of efficacy is performed at 48 h, and then weekly 48 h after reinfestation with ticks by counting the numbers of dead and live ticks recovered from the animals. Efficacy is expressed as comparison with a placebo treated group using the Abbot's formula. Infestation can be repeated at weekly intervals until efficacy drops.

Ixodes ricinus = assay: In-vivo test against ticks (Ixodes ricinus) on cats; settings: 25 mg/kg spray (1% solution in Polypropylenglycol), vs placebo, Abbot's formula
Experimental: 6. In-Vivo Test Against Ticks (Ixodes ricinus) on Cats
as §2, with “Cats” for “5. In-Vivo Test Against Ticks (Rhipicephalus sanguineus) on Dogs Dogs of the beagle breed”, “cats” for “dogs”, “(1%” for “(15%”, “Polypropylenglycol)” for “Transcutol)”, “spray application.” for “spot-on application (between the shoulder blades).”

C=C(C)C1CCC(C)(/C=C/c2ccc3c(c2O)C(O)(c2ccc(OC)cc2)C(OC)C(=O)N3)O1 (stereo not drawn) [compound No. 8]
mean efficacy ([1]; at 100 ppm): 90% | mean efficacy ([2]; at 10 ppm): 60%

COc1ccc(C2(O)c3c(ccc(/C=C/C4(C)CCC(C(C)(C)O)O4)c3O)NC(=O)C2OC)cc1 (stereo not drawn) [compound No. 9]
mean efficacy ([1]; at 63 ppm): 70%

COc1ccc(C2(O)c3c(ccc(/C=C/C4(C)CCC(C)(C)CO4)c3O)NC(=O)C2OC)cc1 (stereo not drawn) [compound No. 11]
mean efficacy ([1]; at 32 ppm): 95% | mean efficacy (Amblyomma variegatum): 90% | mean efficacy (Dermacentor variabilis): 100% | mean efficacy (Rhipicephalus sanguineus [3]): 100% | mean efficacy (Dermanyssus gallinae): 90% | mean efficacy ([2]; at 3.2 ppm): 95% | activity (Rhipicephalus sanguineus [4]): above 90% | activity (Ixodes ricinus; after one week): 95% | activity (Ixodes ricinus; after two weeks): 70%
